Assay results published in ChEMBL document CHEMBL4651402, “Screening of ~5500 FDA-approved drugs and clinical candidates for anti-SARS-CoV-2 activity” (2021).

System: SARS-CoV-2
Assay: microbe, parasite or virus in culture
Conditions: Severe acute respiratory syndrome coronavirus 2, Vero C1008, 48 h

In the case of `CCc1nc2ccc(Cl)cn2c1C(=O)NCc1ccc(N2CCC(c3ccc(OC(F)(F)F)cc3)CC2)cc1` [TELACEBEC], the IC50 is reported as > 20 µM and the IC50 (read-out: pIC50 (converted)) is reported as > 20 µM.
In the case of `CNC(=O)c1cc(COc2nnc(Nc3ccc(Cl)cc3)c3ccoc23)ccn1` [TELATINIB], the IC50 is reported as > 20 µM and the IC50 (read-out: pIC50 (converted)) is reported as > 20 µM.
`O=C(N[C@@H]1CC[C@@H](c2cccc(F)c2F)CN(CC(F)(F)F)C1=O)N1CCC(n2c(=O)[nH]c3ncccc32)CC1` [TELCAGEPANT] was tested, and the IC50 was > 20 µM and the IC50 (read-out: pIC50 (converted)) was > 20 µM.
`Cc1scc2c1N(C(=O)CN1CCN(C)CC1)c1ccccc1NC2=O` [TELENZEPINE] was tested, and the IC50 was > 20 µM and the IC50 (read-out: pIC50 (converted)) was > 20 µM.
For `CCOC(=O)[C@@H](N)Cc1ccc(-c2cc(O[C@H](c3ccc(Cl)cc3-n3ccc(C)n3)C(F)(F)F)nc(N)n2)cc1` [TELOTRISTAT ETHYL], the IC50 was > 20 µM and the IC50 (read-out: pIC50 (converted)) was > 20 µM.
`Cc1ccn(-c2cc(Cl)ccc2[C@@H](Oc2cc(-c3ccc(C[C@H](N)C(=O)O)cc3)nc(N)n2)C(F)(F)F)n1` [TELOTRISTAT] was tested, and the IC50 was > 20 µM and the IC50 (read-out: pIC50 (converted)) was > 20 µM.
With `CC1CN(c2cc3c(cc2F)c(=O)c(C(=O)O)cn3-c2ccc(F)cc2F)CCN1` (stereo not drawn) [TEMAFLOXACIN] the IC50 was > 20 µM and the IC50 (read-out: pIC50 (converted)) was > 20 µM.
For `CN1C(=O)C(O)N=C(c2ccccc2)c2cc(Cl)ccc21` (stereo not drawn) [TEMAZEPAM], the IC50 was > 20 µM and the IC50 (read-out: pIC50 (converted)) was > 20 µM.
`CCOC(=O)[C@H](CCc1ccccc1)N[C@H]1CS[C@H](c2cccs2)CN(CC(=O)O)C1=O` [TEMOCAPRIL] was tested, and the IC50 was > 20 µM and the IC50 (read-out: pIC50 (converted)) was > 20 µM.
`Cn1nnc2c(C(N)=O)ncn2c1=O` [TEMOZOLOMIDE] was tested, and the IC50 was > 20 µM and the IC50 (read-out: pIC50 (converted)) was > 20 µM.
With `CC1(C)CC(O)CC(C)(C)N1[O]` [TEMPOL] the IC50 was > 20 µM and the IC50 (read-out: pIC50 (converted)) was > 20 µM.
With `CO[C@H]1C[C@@H]2CC[C@@H](C)[C@@](O)(O2)C(=O)C(=O)N2CCCC[C@H]2C(=O)O[C@H]([C@H](C)C[C@@H]2CC[C@@H](OC(=O)C(C)(CO)CO)[C@H](OC)C2)CC(=O)[C@H](C)/C=C(\C)[C@@H](O)[C@@H](OC)C(=O)[C@H](C)C[C@H](C)/C=C/C=C/C=C/1C` [TEMSIROLIMUS] the IC50 was > 20 µM and the IC50 (read-out: pIC50 (converted)) was > 20 µM.
`COc1ccc2[nH]c([S+]([O-])Cc3ncc(C)c(OC)c3C)nc2n1` (stereo not drawn) [TENATOPRAZOLE] was tested, and the IC50 was > 20 µM and the IC50 (read-out: pIC50 (converted)) was > 20 µM.
`Cc1cc(N2CCN([C@@H]3CN[C@H](C(=O)N4CCSC4)C3)CC2)n(-c2ccccc2)n1` [TENELIGLIPTIN] was tested, and the IC50 was > 20 µM and the IC50 (read-out: pIC50 (converted)) was > 20 µM.
With `NC(=O)N1C(=O)/C(=C(\O)c2cccs2)c2cc(Cl)ccc21` [TENIDAP] the IC50 was > 20 µM and the IC50 (read-out: pIC50 (converted)) was > 20 µM.
In the case of `CN1CCN(C2=Nc3cscc3/C(=C/C#N)c3cscc32)CC1` [TENILAPINE], the IC50 is reported as > 20 µM and the IC50 (read-out: pIC50 (converted)) is reported as > 20 µM.
With `COc1cc([C@@H]2c3cc4c(cc3[C@@H](O[C@@H]3O[C@@H]5CO[C@@H](c6cccs6)O[C@H]5[C@H](O)[C@H]3O)[C@H]3COC(=O)[C@H]23)OCO4)cc(OC)c1O` [TENIPOSIDE] the IC50 was > 20 µM and the IC50 (read-out: pIC50 (converted)) was > 20 µM.
`CC(C)OC(=O)[C@H](C)N[P@](=O)(CO[C@H](C)Cn1cnc2c(N)ncnc21)Oc1ccccc1` [TENOFOVIR ALAFENAMIDE] was tested, and the IC50 was > 20 µM and the IC50 (read-out: pIC50 (converted)) was > 20 µM.
With `C[C@H](Cn1cnc2c(N)ncnc21)OCP(=O)(O)O` [TENOFOVIR ANHYDROUS] the IC50 was > 20 µM and the IC50 (read-out: pIC50 (converted)) was > 20 µM.
In the case of `CC(C)OC(=O)OCOP(=O)(CO[C@H](C)Cn1cnc2c(N)ncnc21)OCOC(=O)OC(C)C` [TENOFOVIR DISOPROXIL], the IC50 is reported as > 20 µM and the IC50 (read-out: pIC50 (converted)) is reported as > 20 µM.
With `CCCCCCCCCCCCCCCCOCCCOP(=O)(O)CO[C@H](C)Cn1cnc2c(N)ncnc21` [TENOFOVIR EXALIDEX] the IC50 was > 20 µM and the IC50 (read-out: pIC50 (converted)) was > 20 µM.
For `CN1C(C(=O)Nc2ccccn2)=C(O)c2sccc2S1(=O)=O` [TENOXICAM], the IC50 was > 20 µM and the IC50 (read-out: pIC50 (converted)) was > 20 µM.
With `COc1ccc(-n2nc(CCC(=O)N(C)O)cc2-c2ccc(Cl)cc2)cc1` [TEPOXALIN] the IC50 was > 20 µM and the IC50 (read-out: pIC50 (converted)) was > 20 µM.
`COc1cc2nc(N3CCN(C(=O)C4CCCO4)CC3)nc(N)c2cc1OC` (stereo not drawn) [TERAZOSIN] was tested, and the IC50 was > 20 µM and the IC50 (read-out: pIC50 (converted)) was > 20 µM.
For `CN(C/C=C/C#CC(C)(C)C)Cc1cccc2ccccc12` [TERBINAFINE], the IC50 was > 20 µM and the IC50 (read-out: pIC50 (converted)) was > 20 µM.
`CC(C)(C)NCC(O)c1cc(O)cc(O)c1` (stereo not drawn) [TERBUTALINE] was tested, and the IC50 was > 20 µM and the IC50 (read-out: pIC50 (converted)) was > 20 µM.
`C/C(O)=C(\C#N)C(=O)Nc1ccc(C(F)(F)F)cc1` [TERIFLUNOMIDE] was tested, and the IC50 was > 20 µM and the IC50 (read-out: pIC50 (converted)) was > 20 µM.
For `O=C1NOCC1/N=C/c1ccc(/C=N/C2CONC2=O)cc1` (stereo not drawn) [TERIZIDONE], the IC50 was > 20 µM and the IC50 (read-out: pIC50 (converted)) was > 20 µM.
For `O=c1n(CC2CO2)c(=O)n(CC2CO2)c(=O)n1CC1CO1` (stereo not drawn) [TEROXIRONE], the IC50 was > 20 µM and the IC50 (read-out: pIC50 (converted)) was > 20 µM.
In the case of `CCO[C@@H](Cc1ccc(OCCc2ccc(OS(C)(=O)=O)cc2)cc1)C(=O)O` [TESAGLITAZAR], the IC50 is reported as > 20 µM and the IC50 (read-out: pIC50 (converted)) is reported as > 20 µM.
For `CCCCNc1ccc(C(=O)OCCN(C)C)cc1` [TETRACAINE], the IC50 was > 20 µM and the IC50 (read-out: pIC50 (converted)) was > 20 µM.
In the case of `CN(C)[C@@H]1C(O)=C(C(N)=O)C(=O)[C@@]2(O)C(O)=C3C(=O)c4c(O)cccc4[C@@](C)(O)[C@H]3C[C@@H]12` [TETRACYCLINE], the IC50 is reported as > 20 µM and the IC50 (read-out: pIC50 (converted)) is reported as > 20 µM.
With `COc1ccc2c(c1OC)CN1CCc3cc4c(cc3C1C2)OCO4` (stereo not drawn) [TETRAHYDROBERBERINE] the IC50 was > 20 µM and the IC50 (read-out: pIC50 (converted)) was > 20 µM.
`CC1NCCc2c1[nH]c1ccccc21` (stereo not drawn) [TETRAHYDROHARMAN] was tested, and the IC50 was > 20 µM and the IC50 (read-out: pIC50 (converted)) was > 20 µM.
